Laboratory results from patent publication US11795151B2, “Benzotriazole compound” (MIYOSHI OIL & FAT CO., LTD., priority 2017, dated 2023).

Assays:
Format in all cases: physicochemical
[1] = Maximum solubility in various monomers; settings: room temperature (20 to 30° C.), 4 hours
[2] = Maximum solubility in various monomers; settings: acrylonitrile as a vinyl-based monomer; same evaluation method
Excerpt: With the same evaluation method, 2 wt % of Compound 1, 5 wt % of Compound 2, 5 wt % of Compound 3, and 1 wt % of Compound 4 were each soluble in acrylonitrile as a vinyl-based monomer as well.

[3] = Evaluation of UV absorption performance (1): absorbance spectra in chloroform; settings: 100 μM; for Absorbance at absorption peak in wavelength region of 350 to 390 nm / Absorbance at peak end / Absorption wavelength at peak end / Molar extinction coefficient at peak (maximum molar extinction coefficient: εmax) / Wave length at absorption peak in wavelength region of 350 to 390 nm (maximum absorption wavelength: λmax): 10-mm quartz cell; for Absolute value of slope of absorption peak on long wavelength side in wavelength region of 350 to 390 nm: Equation 2
Procedure: Compounds 1 to 12 were diluted with 100 μM of chloroform, placed in a 10-mm quartz cell, and the absorbance spectra were measured using an ultraviolet-visible spectrophotometer (V-550, manufactured by JASCO Corporation)(FIGS. 1 to 12).
The absorption peak (maximum absorption wavelength: λmax) and absorbance in the wavelength range of 350 to 390 nm were read from the absorption spectra of Compounds 1 to 12, and the molar extinction coefficient of the peak (maximum molar extinction coefficient: εmax) was obtained by the following equation (able 1). Molar extinction coefficient:εmax(L/(mol·cm))=A:Absorbance/[c:Mol concentration(mol/L)×1:Cell optical length(cm)] [Equation 1]
In addition, from the absorption spectra of Compounds 1 to 12, assuming that an intersection of a long-wavelength side absorption spectrum in the absorption peak at 350 to 390 nm and a baseline (a line where the slope of the absorption spectrum at 380 to 500 nm is zero) is set as a […] (for example: FIG. 1), the absolute value of the slope of the absorption peak on the long-wavelength side in the wavelength region at 350 to 390 nm was obtained by the following equation: |Slope of absorption peak on long wavelength side in wavelength region of 350 to 390 nm|=|(Absorbance at peak end−Absorbance at absorption peak in wavelength region of 350 to 390 nm)/(Absorption wavelength at peak end−Wave length at absorption peak in wavelength region of 350 to 390 nm)| [Equation 2]

[4] = Evaluation of 5% weight reduction temperature (1) (TG/DTA); settings: temperature increasing rate 10° C./min, 25° C. to 550° C.
Procedure: (§1) Compounds 1 to 8 and 10 to 12 were measured using a differential thermogravimetric simultaneous measurement device (TG/DTA6200, manufactured by SII Corporation) at a temperature increasing rate of 10° C./min and within a measurement range of 25° C. to 550° C., and the temperature at which 5 wt % reduction as the weight change (TG) took place was read (Table 6).

[5] = Evaluation of UV absorption performance (2): absorbance spectra in chloroform; settings: 100 μM; for Absorbance at absoprtion peak in wavelength region of 350 to 390 nm / Absorbance at peak end / Absorption wavelength at peak end / Molar extinction coefficient at peak (maximum molar extinction coefficient: εmax) / Wave length at absorption peak in wavelength region of 350 to 390 nm (maximum absorption wavelength: λmax): 10-mm quartz cell; for Absolute value of slope of absorption peak on long wavelength side in wavelength region of 350 to 390 nm: Equation 4
Procedure: Compounds 11 to 28 were diluted with 100 μM of chloroform and placed in a 10-mm quartz cell, and the absorbance spectra were measured using an ultraviolet-visible spectrophotometer (V-550, manufactured by JASCO Corporation)(FIGS. 11,12,14 to 29).
The absorption peak (maximum absorption wavelength: max) and absorbance in the wavelength range of 350 to 390 nm were read from the absorption spectra of Compounds 11 to 28, and a molar extinction coefficient (maximum molar extinction coefficient: εmax) of the peak was obtained by the following formula (Table 7): Molar extinction coefficient:εmax(L/(mol·cm))=A:Absorbance/[c:Mol concentration(mol/L)×1:Cell optical length(cm)] [Equation 3]
In addition, from the absorption spectra of Compounds 11 to 28, assuming that an intersection of a long-wavelength side absorption spectrum in the absorption peak at 350 to 390 nm and a baseline (a line where the slope of the absorption spectrum at […] is zero) is set as a peak end (for example: FIG. 1), the absolute value of the slope of the absorption peak on the long-wavelength side in the wavelength region at 350 to 390 nm was obtained by the following equation (Table 8): |Slope of absorption peak on long wavelength side in wavelength region of 350 to 390n|=|(Absorbance at peak end−Absorbance at absorption peak in wavelength region of 350 to 390 nm)/(Absorption wavelength at peak end−Wave length at absorption peak in wavelength region of 350 to 390 nm)| [Equation 4]

[6] = Evaluation of 5% weight reduction temperature (2) (TG/DTA); settings: temperature increasing rate 10° C./min, 25° C. to 550° C.
Procedure: as §1, with “The compounds of the present invention” for “Compounds 1 to 8 and 10 to 12”, “w” for “wt”, “9).” for “6).”

Row | SMILES | Maximum solubility ([1]; Dimethylacrylamide) [wt %] | Maximum solubility ([1]; Hexadiene) [wt %] | Maximum solubility ([1]; Methyl (meth)acrylate) [wt %] | Maximum solubility ([1]; Styrene) [wt %] | Maximum solubility ([1]; Vinyl acetate) [wt %] | Concentration soluble in acrylonitrile [2] [wt %] | Absorbance at absorption peak in wavelength region of 350 to 390 nm [3] | Absorbance at peak end [3] | Absorption wavelength at peak end [3] [nm] | Molar extinction coefficient at peak (maximum molar extinction coefficient: εmax) [3] [L/mol/cm] | Wave length at absorption peak in wavelength region of 350 to 390 nm (maximum absorption wavelength: λmax) [3] [nm] | 5% weight reduction temperature [4] [°C] | Absolute value of slope of absorption peak on long wavelength side in wavelength region of 350 to 390 nm [3] | Absorbance at absoprtion peak in wavelength region of 350 to 390 nm [5] | Absorbance at peak end [5] | Absorption wavelength at peak end [5] [nm] | Molar extinction coefficient at peak (maximum molar extinction coefficient: εmax) [5] [L/mol/cm] | Wave length at absorption peak in wavelength region of 350 to 390 nm (maximum absorption wavelength: λmax) [5] [nm] | Absolute value of slope of absorption peak on long wavelength side in wavelength region of 350 to 390 nm [5] | 5% weight reduction temperature [6] [°C]
1 | C=CC(=O)OCCCCCCSc1ccc2nn(-c3cc(C)cc(C(C)(C)C)c3O)nc2c1 [Compound 1] | 20 | 10 | 20 | 25 | 15 | 2 | 2.26 | 0.00766 | 422 | 22600 | 368 |  |  |  |  |  |  |  |  | 
2 | C=C(C)C(=O)OCCSc1ccc2nn(-c3cc(C)cc(C(C)(C)C)c3O)nc2c1 [Compound 2] | 15 | 3 | 20 | 25 | 15 | 5 | 2.25 | 0.00727 | 421 | 21400 | 365 | 285 |  |  |  |  |  |  |  | 
3 | C=C(C)C(=O)OCCCSc1ccc2nn(-c3cc(C)cc(C(C)(C)C)c3O)nc2c1 [Compound 3] | 11 | 5 | 20 | 25 | 12 | 5 | 2.18 | 0.00692 | 419 | 21600 | 367 | 292 |  |  |  |  |  |  |  | 
4 | C=C(C)C(=O)OCCCCCCSc1ccc2nn(-c3cc(C)cc(C(C)(C)C)c3O)nc2c1 [Compound 4] |  |  | 12 | 25 |  | 1 | 2.24 | 0.00762 | 420 | 22400 | 368 |  |  |  |  |  |  |  |  | 
5 | C/C=C/C(=O)OCCCCCCSc1ccc2nn(-c3cc(C)cc(C(C)(C)C)c3O)nc2c1 [Compound 7] |  |  |  |  |  |  | 2.19 | 0.00728 | 422 | 21900 | 368 | 304 |  |  |  |  |  |  |  | 
6 | C=CCSc1ccc2nn(-c3cc(C)cc(C(C)(C)C)c3O)nc2c1 [Compound 10, reference compound] | ≤9 | 1 | ≤10 | ≤20 | ≤10 |  | 1.76 | 0.00722 | 430 | 17600 | 375 | 252 | 0.032 |  |  |  |  |  |  | 
7 | C=C(C)C(=O)OCCc1ccc(O)c(-n2nc3ccccc3n2)c1 [Compound 11, reference compound] | 10 | 2 | 11 | 21 | 11 |  | 1.83 | 0.0069 | 388 | 18300 | 341 | 249 | 0.038 | 1.83 | 0.0069 | 388 | 18300 | 341 | 0.038 | 
8 | Cc1cc(-n2nc3ccc(Cl)cc3n2)c(O)c(C(C)(C)C)c1 [Compound 12, reference compound] |  |  |  |  |  |  | 1.53 | 0.00617 | 423 | 15300 | 353 | 230 | 0.022 | 1.76 | 0.00722 | 430 | 16300 | 353 | 0.032 | 230
9 | CCCCCCSc1ccc2nn(-c3cc(C)cc(C(C)(C)C)c3O)nc2c1 [Compound 29] |  |  |  |  |  |  |  |  |  |  |  |  |  |  |  |  |  |  |  | 277
10 | Cc1ccc(Sc2ccc3nn(-c4cc(C)cc(C(C)(C)C)c4O)nc3c2)cc1 [Compound 30] |  |  |  |  |  |  |  |  |  |  |  |  |  |  |  |  |  |  |  | 293
